What is called IC50 is the concentration at which inhibition is half-maximal.

Some results are limits rather than exact numbers.

For nine molecules, IC50 results are on record in BindingDB's records for doi:10.1021/jm00086a008 (Wellcome Research Laboratories, 1992).

The test has as its target GAR transformylase (Sus scrofa). The test can be described thus: In vitro inhibition of hog liver GAR transformylase with (6R)-10-formyl-FH4 as cofactor.
In turn, `Cc1cc(C(=O)NC(CCC(=O)O)C(=O)O)ccc1NCCCc1c(N)nc(N)[nH]c1=O` (centres undefined) displayed an IC50 of 6.1 µM. To `Nc1nc(N)c(CCCCNc2ccc(C(=O)NC(CCC(=O)O)C(=O)O)cc2)c(=O)[nH]1` (centres undefined) belongs 18.2 µM. For `Nc1nc(N)c(CCCNc2ccc(C(=O)NC(CCC(=O)O)C(=O)O)c(F)c2)c(=O)[nH]1` (centres undefined), 3.1 µM corresponded to half-maximal inhibition (IC50).

`Nc1nc(N)c(CCCSc2ccc(C(=O)NC(CCC(=O)O)C(=O)O)cc2)c(=O)[nH]1` (centres undefined) came in with an IC50 of 2.6 µM. The molecule `Nc1nc(N)c(CCCNc2ccc(C(=O)NC(CCC(=O)O)C(=O)O)cc2F)c(=O)[nH]1` (centres undefined) returned an IC50 of 3.5 µM.

In the case of `Nc1nc(N)c(CCCNc2ccc(C(=O)NC(CCC(=O)O)C(=O)O)c(Cl)c2)c(=O)[nH]1` (centres undefined), it took 6.6 µM to reach half-maximal inhibition (IC50). Consider `Nc1nc(N)c(CCCOc2ccc(C(=O)NC(CCC(=O)O)C(=O)O)cc2)c(=O)[nH]1` (centres undefined), for which the midpoint of inhibition, the IC50, lay at 5.3 µM. `Nc1nnc(C2CCN(c3ccc(C(=O)NC(CCC(=O)O)C(=O)O)cc3)C2=O)c(=O)[nH]1` (centres undefined) returned an IC50 greater than 100 µM. Molecule `Nc1nc[nH]c(=O)c1CCCNc1ccc(C(=O)NC(CCC(=O)O)C(=O)O)cc1` (centres undefined) returned an IC50 of 52 µM. That is a double-digit micromolar value.
